Measured values published in US20030154517A1, “Efficiency agrobacterium-mediated wheat transformation method” (priority 2001, published 2003).
Values joined by “and” are separate entries in the source; they are usually repeats but may differ in a detail not shown here. Equal values may be shown once. Read-outs that look alike come from different tables or passages of the source.

Columns and labels:
[1] = tested on: immature embryos of wheat; assay: Agrobacterium-mediated wheat transformation, nptII (G418/kanamycin) selection (transformation efficiency); format: cell-based, Triticum aestivum L
Source text: (§1) Immature embryos of wheat (Triticum aestivum L) cv Bobwhite were isolated from the immature caryopsis (wheat spikelets) 12-15 days after pollination, and cultured on CM4C (Table 2) for 1-8 days, most typically for 4-6. The embryos without embryogenic callus were selected for Agrobacterium inoculation.
A disarmed Agrobacterium strain C58 (ABI) harboring a binary vector was used for all the experiments. […] The Agrobacterium cells were resuspended in the inoculation medium and the density was adjusted to an OD660 of 1. […] An equal amount of the Agrobacterium cell suspension was added such that the final concentration of Agrobacterium cells was an OD660 of 0.5. In most experiments, pluronic F68 was added to the inoculation mixture at a final concentration of 0.01%. The ratio between the Agrobacterium and immature embryos (IEs) was about 10 mL: 20-200 IEs. The conditions for inoculation were temperatures from about 23° C.-26° C. with a duration from about 5-60 minutes.
(§2) After the inoculation period, the remaining Agrobacterium cells were removed from the explants by using the in-house vacuum equipment. A piece of sterile Whatman No. 1 filter paper (to fit the size of the petri plate) was placed in each of 60×15 or 60×20 mm petri dishes without additional liquid or agar-supplemented media. Two hundred microliters of sterile water was placed in the middle of the filter paper. After 2-3 minutes, the inoculated immature embryos were placed in the plates. Usually, 20-50 explants are grouped as one stack (about 1 cm in size and 60-80 mg/stack), with 4-5 stacks on each plate. The plates were immediately parafilmed and then co-cultivated in the dark at 24° C.-26° C. for 2-3 days.
For nptII selection, immature embryos were isolated, precultured, inoculated, and co-cultured as previously described. After the 3-day co-culture, embryos were transferred to delay culture (solid CM4C2D) media (CM4C media as in Table 2 with 2 mg/L 2,4-D) with 500 mg/L carbenicillin for 7 days in the dark at 25° C. Selection was done in liquid CM4C media (as in Table 2 without the Phytagel) with 100 mg/L carbenicillin and 20 mg/L G418 on a support for 7 days in the dark followed by 7 days in the light (16 hr photoperiod), at 25° C. The calli were then transferred to liquid MMS0.2C media (as in Table 2 without the gelling agent) with 100 mg/L carbenicillin and 25 mg/L G418 on a support for 2 weeks at 25° C. with a 16 hr photoperiod. After 2 weeks, the calli were transferred to liquid MMSOC media (as in Table 2 without the gelling agent) with 100 mg/L carbenicillin and 25 mg/L G418 on a support for 2 to 4 weeks at 25° C. with a 16 hr photoperiod. Plantlets were transferred to solid MMSOC media with 100 mg/L carbenicillin and 25 mg/L G418 in sundae cups for 1 to 4 weeks at 25° C. with a 16 hr photoperiod.

[2] = tested on: immature embryos of wheat (Triticum aestivum L) cv Bobwhite; assay: Agrobacterium-mediated wheat transformation, glyphosate selection (transformation efficiency); format: cell-based
Source text: as §1
A disarmed Agrobacterium strain C58 (ABI) harboring a binary vector was used for all the experiments. For the control experiments, cultures of Agrobacterium were initiated from glycerol stocks or from a freshly streaked plate and grown overnight at 26° C.-28° C. with shaking (approximately 150 rpm) to mid-log phase (about OD660=1-1.5) in liquid LB medium, pH 7.0 (Miller, 1972) containing 50 mg/L kanamycin, 50 mg/L streptomycin and spectinomycin, and 25 mg/L chloramphenicol with 200 μM acetosyringone (AS). The Agrobacterium cells were resuspended in the inoculation medium and the density was adjusted to an OD660 of 1. The immature embryos cultured in CM4C medium were transferred into sterile petri plates (16×20 mm) or wells of a 6-well cell culture plate (Costar Corporation, Cambridge, Mass.) containing 10 mL of inoculation medium per petri plate or 5 mL per cell culture cluster plate. An equal amount of the Agrobacterium cell suspension was added such that the final concentration of Agrobacterium cells was an OD660 of 0.5. In most experiments, pluronic F68 was added to the inoculation mixture at a final concentration of 0.01%. The ratio between the Agrobacterium and immature embryos (IEs) was about 10 mL: 20-200 IEs. The conditions for inoculation were temperatures from about 23° C.-26° C. with a duration from about 5-60 minutes.
as §2
After a 3-day co-cultivation, the Agrobacterium-infected precultured immature embryos (PCIE) and embryogenic calli were transferred to CM4C medium (Table 2) supplemented with 500 mg/L carbenicillin and cultured for about seven days. This “delay” medium could also contain glyphosate as discussed in Example 4.
The explants were then transferred to CM4C selection medium with 2 mM glyphosate and 500 mg/L carbenicillin for one week in the dark. All the calli were transferred to MMS0.2C (Table 2) supplemented with 0.1 mM glyphosate and 250 mg/L carbenicillin (first regeneration medium) for an additional two weeks of selection with lighting conditions of about 80 μE. […] All the embryogenic calli were transferred to the second regeneration medium MMS0C (Table 2) supplemented with 500 mg/L carbenicillin and 0.02 mM glyphosate. Aromatic amino acids including I-tryptophan, L-tyrosine, and I-phenylalanine (10^−7 mM/amino acid) were added to this medium to facilitate the selection. These tissues were transferred to fresh media every two weeks. […] Once the root system was established, the plants were transferred to soil and subsequently assayed. […]

[3] = tested on: immature embryos of wheat (Triticum aestivum L) cv Bobwhite; assay: as above; format: cell-based; remark: listed apart in the source
[4] = Table 19: compound at 2 μM in second regeneration stage (MMSOC media)
[5] = Table 19: compound at 20 μM in second regeneration stage (MMSOC media)
[6] = Table 19 compounds at the concentrations tested (2 and/or 20 μM) in MMSOC

Copper acetate
% TE [1]: 23.0% | Independent transgenic events/explants [1]: 53/230

[Cl][Cu][Cl] [Copper chloride]
% TE [1, 4]: 16.8% | Independent transgenic events/explants [1, 4]: 37/220 | % TE [1, 5]: 24.2% | Independent transgenic events/explants [1, 5]: 55/227

[Cl-].[Cl-].[Mg+2] [Magnesium chloride]
% TE [1]: 3.0% | Independent transgenic events/explants [1]: 7/231 | effectiveness at increasing TE [1]: not effective

O=S(=O)([O-])[O-].[Zn+2] [Zinc sulfate]
Independent transgenic events/explants [1]: 12/219 and 17/107 | effectiveness at increasing TE [1]: not effective | % TE [1, 4]: 5.5% | % TE [1, 5]: 15.9%

O=C(O)CNCP(=O)(O)O [glyphosate]
TE % ([2]; 0.02 mM glyphosate in preculture and delay culture media (CM4C), per experiment and Total, listed as gly): 3.7% and 3.8% and 4.9% and 8.3% and 2.4% | Efficiency % ([2]; 0.1 mM gly in MMS0.2C first regeneration medium, per experiment and Total, listed as gly): 4.7% and 1.6% and 2.3% and 0.0% and 2.9% | Efficiency % ([2]; Table 9b treatment 1: MMS0.2C + 0.1 Gly, two experiments and Total, listed as Gly): 4.8% and 6.8% and 8.9% | transformation efficiency ([2]; glyphosate at 0.02 mM in preculture and delay culture media): significantly improved | TE % ([2]; selection 7 days in CM4C + 2 mM glyphosate, per experiment and Total): 5.2% and 1.5% and 4.4% and 3.1% and 4% and 2.2% | Efficiency % ([3]; 0.5 mM gly in MMS0.2C first regeneration medium, per experiment and Total, listed as gly): 1.5% and 7.9% and 2.8% and 3.7% and 3.0% | Efficiency % ([3]; 1.0 mM gly in MMS0.2C first regeneration medium, per experiment and Total, listed as gly): 5.0% and 5.3% and 4.2% and 2.5% | Efficiency % ([3]; Table 9b treatment 2: MMS0.2C + 0.5 Gly, two experiments and Total, listed as Gly): 7.7% and 10.7% and 13.7% | TE % ([3]; selection 10 days in CM4C + 2 mM glyphosate, per experiment and Total): 8.6% and 1.25% and 6.4% and 4.8% and 7.3% and 5.3%

O=S(=O)([O-])[O-].[Mn+2] [Manganese sulfate]
% TE [1, 5]: 4.2% | Independent transgenic events/explants [1, 5]: 8/189 | effectiveness at increasing TE [1, 6]: not effective

[Cl][Co][Cl] [Cobalt chloride]
% TE [1, 5]: 9.2% | Independent transgenic events/explants [1, 5]: 19/207 | effectiveness at increasing TE [1, 6]: more effective than the negative control
